Reference: patent US9523100B2, “Pesticidal compositions and related methods” (DOW AGROSCIENCES LLC, priority 2013, dated 2016)
Read-outs that look alike come from different tables or passages of the source.

Legend:
[1] = system: Sweetpotato Whitefly-Crawler (WF) (Bemisia tabaci) (BEMITA); assay: Insecticidal test for Sweetpotato Whitefly-Crawler (WF) in foliar spray assay on cotton plants; type: in vivo; conditions: 216 h, read-out: WF 200 ppm, % Control (or Mortality) rating
How it was run: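 Whitefly nymph control on egg-infested cotton (eggs laid 4–5 days pre-treatment), foliar spray at 200 ppm test compound. Live late-stage nymphs counted microscopically 9 days later at ~25 °C; control calculated by Abbott's formula relative to acetone-diluent-sprayed plants.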

[2] = system: Green Peach Aphid (GPA) (Myzus persicae) (MYZUPE); assay: Bioassay for Green Peach Aphid (GPA), foliar spray on cabbage seedlings; type: in vivo; conditions: 72 h, read-out: GPA 200 ppm, % Control (or Mortality) rating
How it was run: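 Foliar spray test: 200 ppm solutions (0.025% Tween 20 in water, 20% acetone/methanol) applied to both leaf sides of aphid-infested cabbage seedlings. After 3 days at about 25° C, live aphids per plant were counted; control corrected to solvent check via Abbott's formula.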

[3] = 200 ppm foliar spray on cotton plants, graded after 9 days, Abbott corrected % control
[4] = 200 ppm foliar spray on cabbage seedlings, graded after three days, Abbott corrected % control

SMILES	mortality at 200 ppm [1, 3] [%]	mortality at 200 ppm [2, 4] [%]	mortality at 200 ppm ([1]; foliar) [%]	mortality at 200 ppm ([2]; foliar) [%]
CCN(C(=O)CCC1CN(CC2CC2(F)F)C1=O)c1cn(-c2cccnc2)nc1Cl (centres unmarked) [Compound F74, N-(3-Chloro-1-(pyridin-3-yl)-1H-pyrazol-4-yl)-3-1(1-((2,2-difluorocyclopropyl)methyl)-2-oxoazetidin-3-yl)-N-ethylpropanamide]	80 to 100	80 to 100		
CCN(C(=O)CCC(=O)NCCC(F)(F)F)c1cn(-c2cccnc2)nc1Cl [Compound F73, N1-(3-Chloro-1-(pyridin-3-yl)-1H-pyrazol-4-yl)-N1-ethyl-N4-(3,3,3-trifluoropropyl) succinamide]	80 to 100	80 to 100		
CN(CC(=O)N(CC1CC1)c1cn(-c2cccnc2)nc1Cl)C(=O)OC(C)(C)C [Compound F76, tert-Butyl (2-((3-chloro-1-(pyridin-3-yl)-1H-pyrazol-4-yl)(cyclopropylmethyl)amino)-2-oxoethyl) (methyl)carbamate]			0 to 80	0 to 80
CCN(C(=O)CCCC1CNC1=O)c1cn(-c2cccnc2)nc1Cl (centres unmarked) [Compound F58]	80 to 100	80 to 100		
CCN(C(=O)CCNC(=O)C1CCN(C(C)=O)CC1)c1cn(-c2cccnc2)nc1Cl [Compound F112, 1-Acetyl-N-(3-((3-chloro-1-(pyridin-3-yl)-1H-pyrazol-4-yl)(ethyl)amino)-3-oxopropyl)piperidine-4-carboxamide]	80 to 100	0 to 80		
Cc1nn(-c2cccnc2)cc1N(C)C(=O)CCC(=O)N(C)C [Compound F62, N1,N1,N4-trimethyl-N4-(3-methyl-1-(pyridin-3-yl)-1H-pyrazol-4-yl)succinamide]	80 to 100	80 to 100		
CCN(C(=O)CNC(=O)OC(C)(C)C)c1cn(-c2cccnc2)nc1Cl [Compound F2, tert-Butyl (2-((3-chloro-1-(pyridin-3-yl)-1H-pyrazol-4-yl)(ethyl)amino)-2-oxoethyl)carbamate]	80 to 100	80 to 100		
CCSC(=O)N(C)C(C)C(=O)N(CC)c1cn(-c2cccnc2)nc1Cl (centres unmarked) [Compound F79, S-Ethyl (1-((3-chloro-1-(pyridin-3-yl)-1H-pyrazol-4-yl)(ethyl)amino)-1-oxopropan-2-yl)(methyl) carbamothioate]	0 to 80	0 to 80		
CCN(C(=O)CC/C(C)=N/OCCCCF)c1cn(-c2cccnc2)nc1Cl [FA20, (E/Z)-N-(3-chloro-1-(pyridin-3-yl)-1H-pyrazol-4-yl)-N-ethyl-4-((4-fluorobutoxy)imino)pentanamide]	80 to 100	80 to 100		
CCN(C(=O)CN1CCSC1=O)c1cn(-c2cccnc2)nc1Cl [Compound F10, N-(3-Chloro-1-(pyridin-3-yl)-1H-pyrazol-4-yl)-N-ethyl-2-(2-oxothiazolidin-3-yl)acetamide]	80 to 100	0 to 80		
CCN(C(=O)CCN(CC(F)F)C(=O)C1(C)CC1(F)F)c1cn(-c2cccnc2)nc1Cl (centres unmarked) [Compound F35, N-(3-((3-Chloro-1-(pyridin-3-yl)-1H-pyrazol-4-yl)(ethyl)amino)-3-oxopropyl)-N-(2,2-difluoroethyl)-2,2-difluoro-1-methylcyclopropane carboxamide]	80 to 100	80 to 100		
CCN(C(=O)CC/C(C)=N\O)c1cn(-c2cccnc2)nc1Cl [FA46, (Z)-N-(3-Chloro-1-(pyridin-3-yl)-1H-pyrazol-4-yl)-N-ethyl-4-(hydroxyimino)pentanamide]	80 to 100	0 to 80		
CN(C(=O)CN1CCCCC1=O)c1cn(-c2cccnc2)nc1Cl [Compound F77, N-(3-Chloro-1-(pyridin-3-yl)-1H-pyrazol-4-yl)-N-methyl-2-(2-oxopiperidin-1-yl)acetamide]	80 to 100	80 to 100		
CN(C(=O)CN1CCSC1=O)c1cn(-c2cccnc2)nc1Cl [Compound F7, N-(3-Chloro-1-(pyridin-3-yl)-1H-pyrazol-4-yl)-N-methyl-2-(2-oxothiazolidin-3-yl)acetamide]	80 to 100	0 to 80		
CCN(C(=O)CCn1ccc(/C(C)=N/OC(C)C)n1)c1cn(-c2cccnc2)nc1Cl [FA2, (E/Z)-N-(3-Chloro-1-(pyridin-3-yl)-1H-pyrazol-4-yl)-N-ethyl-3-(3-(1-(isopropoxyimino)ethyl)-1H-pyrazol-1-yl)propanamide]	80 to 100	0 to 80		
CCN(C(=O)CN(C)C(=O)CC(F)(F)F)c1cn(-c2cccnc2)nc1Cl [Compound F120, N-(2-((3-Chloro-1-(pyridin-3-yl)-1H-pyrazol-4-yl)(ethyl)amino)-2-oxoethyl)-3,3,3-trifluoro-N-methylpropanamide]	80 to 100	80 to 100		
O=C(CCC(=O)N(CC1CC1)c1cn(-c2cccnc2)nc1Cl)N1CCCCC1 [Compound F82, N-(3-Chloro-1-(pyridin-3-yl)-1H-pyrazol-4-yl)-N-(cyclopropylmethyl)-4-oxo-4-(piperidin-1-yl)butanamide]	80 to 100	0 to 80		
CCN(C(=O)C1CCN(C(=O)OC(C)(C)C)CC1)c1cn(-c2cccnc2)nc1Cl [Compound F110, tert-Butyl 44-(3-chloro-1-(pyridin-3-yl)-1H-pyrazol-4-yl)(ethylcarbamoyl) piperidine-1-carboxylate]	80 to 100	80 to 100		
CCN(C(=O)CCN(C(C)=O)C1CC1)c1cn(-c2cccnc2)nc1Cl [Compound F9, N-(3-Chloro-1-(pyridin-3-yl)-1H-pyrazol-4-yl)-3-(N-cyclopropylacetamido)-N-ethylpropanamide]	0 to 80	80 to 100		
CCN(C(=O)C1CCN(C(=O)c2cccnc2)CC1)c1cn(-c2cccnc2)nc1Cl [FA8, N-(3-Chloro-1-(pyridin-3-yl)-1H-pyrazol-4-yl)-N-ethyl-1-nicotinoylpiperidine-4-carboxamide]	0 to 80	80 to 100		
CN(C(=O)CCC(=O)N1CCCCC1)c1cn(-c2cccnc2)nc1Cl [Compound F33, N-(3-Chloro-1-(pyridin-3-yl)-1H-pyrazol-4-yl)-N-methyl-4-oxo-4-(piperidin-1-yl)butanamide]	80 to 100	0 to 80		
CC(=O)CCC(=O)N(C)c1cn(-c2cccnc2)nc1Cl [FA75, N-(3-Chloro-1-(pyridin-3-yl)-1H-pyrazol-4-yl)-N-methyl-4-oxopentanamide]	80 to 100	0 to 80		
CN(C)C(=O)CCC(=O)N(C)c1cn(-c2cccnc2)nc1Cl [Compound F25, N1-(3-Chloro-1-(pyridin-3-yl)-1H-pyrazol-4-yl)-N1,N4,N4-trimethyl succinimide]	80 to 100	0 to 80		
CCN(C(=O)CN1CCCCCC1=O)c1cn(-c2cccnc2)nc1Cl [Compound F123, N-(3-Chloro-1-(pyridin-3-yl)-1H-pyrazol-4-yl)-N-ethyl-2-(2-oxoazepan-1-yl)acetamide]	80 to 100	0 to 80		
CCN(C(=O)C1CCCCN1C(C)=O)c1cn(-c2cccnc2)nc1Cl (centres unmarked) [FA32, 1-Acetyl-N-(3-chloro-1-(pyridin-3-yl)-1H-pyrazol-4-yl)-N-ethylpiperidine-2-carboxamide]	0 to 80	0 to 80		
